Earlier results in patent publication US4942167A, “Pharmaceutical compositions of piroxicam in aqueous solutions and process for their preparation” (Chiesi Farmaceutici S.p.A., priority 1988, dated 1990).

Conditions: in words, background

Structure (SMILES): CN1C(C(=O)Nc2ccccn2)=C(O)c2ccccc2S1(=O)=O [piroxicam, N-(2-pyridyl)-2-methyl-4-hydroxy-2H-1,2-benzothiazine-3-carboxyamido-1,1-dioxide]
- water-solubility: poor
